Test results: PubChem BioAssay (NCI)
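Grown in 96-well plates, cells were treated for 48 hours with each compound at five concentrations. Insufficient inhibition: endpoint recorded as highest concentration tested. TGI: total growth inhibition.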

Columns and labels:
Test in all cases: NCI tumour cell line growth inhibition, 48 h
NCI-H226 lung = system: NCI-H226 lung
EKVX NSCLC = system: EKVX NSCLC
OVCAR-3 ovarian = system: OVCAR-3 ovarian
A549 NSCLC = system: A549 NSCLC
RPMI-8226 leukemia = system: RPMI-8226 leukemia
CCRF-CEM leukemia = system: CCRF-CEM leukemia
UO-31 renal = system: UO-31 renal
A498 renal = system: A498 renal
M14 melanoma = system: M14 melanoma
HL-60(TB) leukemia = system: HL-60(TB) leukemia
K-562 leukemia = system: K-562 leukemia
NCI-H23 lung = system: NCI-H23 lung
OVCAR-5 ovarian = system: OVCAR-5 ovarian
PC-3 prostate = system: PC-3 prostate
KM12 colon = system: KM12 colon
UACC-257 melanoma = system: UACC-257 melanoma
MDA-N = system: MDA-N
T-47D breast = system: T-47D breast
UACC-62 melanoma = system: UACC-62 melanoma
RXF 393 renal = system: RXF 393 renal

Row | Structure (SMILES) | TGI (NCI-H226 lung) [µM] | TGI (EKVX NSCLC) [µM] | TGI (OVCAR-3 ovarian) [µM] | TGI (A549 NSCLC) [µM] | TGI (RPMI-8226 leukemia) [µM] | TGI (CCRF-CEM leukemia) [µM] | TGI (UO-31 renal) [µM] | TGI (A498 renal) [µM] | TGI (M14 melanoma) [µM] | TGI (HL-60(TB) leukemia) [µM] | TGI (K-562 leukemia) [µM] | TGI (NCI-H23 lung) [µM] | TGI (OVCAR-5 ovarian) [µM] | TGI (PC-3 prostate) [µM] | TGI (KM12 colon) [µM] | TGI (UACC-257 melanoma) [µM] | TGI (MDA-N) [µM] | TGI (T-47D breast) [µM] | TGI (UACC-62 melanoma) [µM] | TGI (RXF 393 renal) [µM]
1 | Cc1nc(N)c(N2CCNCC2)c(=O)[nH]1 | > 100 | > 100 | > 100 | > 100 | > 100 | > 100 | > 100 | > 100 | > 100 | > 100 | > 100 | > 100 | > 100 | > 100 | > 100 | > 100 | > 100 | > 100 | – | –
2 | Cc1c(Cc2ccccc2)n(COCCCO)c(=O)[nH]c1=O | > 100 | > 100 | > 100 | > 100 | > 100 | > 100 | > 100 | > 100 | > 100 | – | > 100 | > 100 | > 100 | > 100 | > 100 | > 100 | > 100 | > 100 | > 100 | > 100
3 | S=C1Cc2c([nH]c3ccccc23)-c2ccccc2N1 | 89.5 | > 100 | > 100 | > 100 | > 100 | > 100 | 58.9 | – | > 100 | > 100 | > 100 | > 100 | > 100 | > 100 | > 100 | > 100 | > 100 | > 100 | > 100 | 46
4 | CCN(CC)Cc1cc(Nc2ccnc3ccc4c(nnn4C)c23)ccc1O | – | > 100 | 39.9 | 27 | – | 35.7 | 23.6 | – | 28.7 | 50.6 | 33 | 25.6 | 33.9 | 20.8 | 39.7 | 28.8 | 27 | 63.5 | 30.9 | 30.6
5 | CC1CN=C(Nc2ccc(S(N)(=O)=O)cc2)S1 (stereo not given) | – | > 100 | > 100 | > 100 | > 100 | > 100 | > 100 | > 100 | > 100 | > 100 | > 100 | > 100 | > 100 | > 10 | > 100 | > 100 | > 10 | > 100 | – | –
6 | CNC(=O)N1CCN(C(=O)NC)CCN(C(=O)NC)CC1 | > 100 | > 100 | – | > 100 | > 100 | > 100 | > 100 | > 100 | > 100 | > 100 | > 100 | > 100 | > 100 | > 100 | – | > 100 | > 100 | > 100 | > 100 | > 100
7 | O=C(CCc1ccc(O)cc1)NCCc1ccc(O)cc1 | > 100 | > 100 | > 100 | > 100 | – | > 100 | > 100 | > 100 | > 100 | > 100 | > 100 | > 100 | > 100 | > 100 | > 100 | > 100 | > 100 | > 100 | > 100 | > 100
8 | Clc1cccc(Cl)c1C1SCC2=Nc3ccccc3CN21 (stereo not given) | – | 73.6 | 29.5 | 56.5 | > 100 | > 100 | 43.2 | > 100 | 48.1 | > 100 | > 100 | 34.7 | > 100 | 52.4 | 48.1 | > 100 | > 100 | 85.1 | > 100 | 56.6
9 | Oc1cc(O)c2c(c1)O[C@H](c1cc(O)c(O)c(O)c1)[C@H](O)C2 | > 100 | – | > 100 | 76.7 | 31.7 | 42.4 | 39.4 | > 100 | > 100 | 42.2 | 48.4 | 65.3 | 32 | 42.9 | – | > 100 | 40.9 | 80.7 | – | 29.6
10 | C1=C2C3=[N+](CCCC3)CC2Cc2ccsc21 (stereo not given) | > 100 | > 100 | > 100 | > 100 | – | > 100 | > 100 | > 100 | > 100 | > 100 | > 100 | > 100 | > 100 | > 100 | > 100 | > 100 | > 100 | > 100 | > 100 | > 100
11 | CCOC(=O)C(=C(SC)SC)c1nn2c(=O)cc(C)nc2s1 | 44.6 | 53.8 | 35 | > 100 | 41.3 | 68.6 | 34 | – | 29.4 | 37.6 | 44.1 | 65.9 | 67.2 | 56.6 | 89.7 | 45.2 | 30.6 | 34.1 | 57.3 | 47.5
12 | O=C(Nc1ccc2nc(-c3ccccc3)cn2c1)Oc1ccccc1 | > 100 | > 100 | > 100 | > 100 | – | > 100 | > 100 | > 100 | > 100 | > 100 | > 100 | > 100 | > 100 | > 100 | > 100 | > 100 | 41.9 | 76.9 | > 100 | 7.31
